Patent US8637677B2, “Organic dicarboxylic acids, salts and preparation method thereof” (Southeast University, priority 2009, dated 2014)

How the values were obtained:
[1] = test system: in vitro eye lens of rabbits; experiment: resisting oxidative damage to in vitro eye lens of rabbits induced by H2O2 (lens opacification grading); assay type: cell-based; conditions: rabbit lens; for Observation Results + (number of lenses with mild opacity, degree I) / Observation Results ++ (number of lenses with moderate opacity, degree II) / Observation Results +++ (number of lenses totally opacified, degree III) / Percentages for different degrees % + Degree (I) / Percentages for different degrees % >++ Degrees(I, II) / Comments (improvement versus model group): 2% H2O2 + 0.02% FeCl3, 24 h culture, sample and BDL 0.5 mmol/L; for Observation Results + (number of lenses with mild opacity, degree I) / Observation Results ++ (number of lenses with moderate opacity, degree II) / Observation Results +++ (number of lenses totally opacified, degree III) / Percentages for different degrees % + Degree (I) / Percentages for different degrees % >++ Degrees(I, II): vitamin C 1 mmol/L; for inhibitory effects on oxidative damage to in vitro eye lens of rabbits induced by H2O2: sample 0.5 mmol/L, table 1
Excerpt: (§1) Some typical compounds are selected for the research on the capability of in vitro resisting oxidative damage to crystalline lens induced by H2O2. The experiments are illustrated as follows:
(§2) Kill rats and rabbits, take out their eyeballs and rinse with saline containing 500 u/mL penicillin, split the eyeball from the posterior to remove eyeball wall and vitreous body, strip off the suspensory ligament, take out the crystalline lens and wash with PBS solution containing 500 u/mL penicillin and 0.5 mg/mL streptomycin for 5 min Before experiment, check with anatomical lens to confirm that there is no opacification or other abnormal condition in the crystalline lens, then place the crystalline lens in the sterilized 12-well plate containing 2 mL DMEM/high glucose (a product from Beijing Thermo Fisher Scientific Biochemical Product Co., Ltd.) sterile culture solution (which contains 100 u/mL penicillin and 0.1 mg/mL streptomycin), add different compounds for screening and pre-culture in a incubator with temperature of 37° C., humidity of 95% and 5% CO2 for 1 h, subsequently add 2 mL DEME culture solution containing H2O2 and FeCl3 (namely, total 4 mL culture solution in each well) (the total concentration of H2O2 in each well is 2% for rabbits, and 5% for rats, and the concentrations of FeCl3 are all 0.02%), culture under the same conditions for 24 hours. The experiments are divided into several groups as below and carried out in batches, with each batch provided with negative control group and model group.
(§3) A. Negative control group: DMEM culture solution without H2O2.
(§4) B. Model group (oxidative damage group): DMEM culture solution containing H2O2 and FeCl3.
(§5) C. Vitamin C group: besides the ingredients of the model group, further containing vitamin C (the final concentration is 1 mmol/L).
(§6) D. Bendazac lysine (BDL) group (BDL is provided by Zhejiang Shapuaisi Pharmaceutical Co. Ltd., and its purity is more than 98.5%): besides the ingredients of model group, further containing BDL (the final concentration is 0.5 mmol/L).
(§7) E. Sample group: besides the ingredients of model group, further containing sample (the final concentration is 0.5 mmol/L).
(§8) Evaluation criteria: according to large amount of experiments on the model group, the ratio between the percentage of different degrees of lens opacification in the groups and the percentage of different degrees of lens opacification in the model group is utilized as the definition, wherein, for slight improvement (√), the percentage of ++ (degrees II, III) should be lower than 67%, and the percentage of + (degree I) should be higher than 33%; for moderate improvement (√√), the percentage of ++(degrees II, III) further decreases; and the percentage of 0 (−) appears; for significant improvement (√√√), the percentage of ++ (degrees II, III) and + (degree I) disappears, and the lens are almost transparent.

[2] = test system: in vitro eye lens of rats; experiment: resisting oxidative damage to in vitro eye lens of rats induced by H2O2 (lens opacification grading); assay type: cell-based; conditions: rat lens; for Observation Results + (number of lenses with mild opacity, degree I) / Observation Results ++ (number of lenses with moderate opacity, degree II) / Observation Results +++ (number of lenses totally opacified, degree III) / Percentages % + Degree (I) / Percentages % >++ Degrees (II, III) / Comments (improvement versus model group): 5% H2O2 + 0.02% FeCl3, 24 h culture, sample and BDL 0.5 mmol/L; for Observation Results + (number of lenses with mild opacity, degree I) / Observation Results ++ (number of lenses with moderate opacity, degree II) / Observation Results +++ (number of lenses totally opacified, degree III) / Percentages % + Degree (I) / Percentages % >++ Degrees (II, III): vitamin C 1 mmol/L; for inhibitory effects on oxidative damage to in vitro eye lens of rats induced by H2O2: sample 0.5 mmol/L, summary of table 2
Excerpt: as §1, §2, §3, §4, §5, §6, §7
as §8, with “lens turbidity” for “lens opacification”, “than 72%,” for “than 67%,”, “than 20%;” for “than 33%;”, “improvement (√√)” for “improvement (√√),”, “and +(degree” for “and + (degree”

O=C1O[C@H]([C@@H](O)CO)C(O)=C1O [VC, vitamin C, reference compound]
Observation Results + (number of lenses with mild opacity, degree I) [1]: 13 | Observation Results ++ (number of lenses with moderate opacity, degree II) [1]: 16 | Observation Results +++ (number of lenses totally opacified, degree III) [1]: 2 | Percentages for different degrees % + Degree (I) [1]: 42% | Percentages for different degrees % >++ Degrees(I, II) [1]: 58% | Observation Results + (number of lenses with mild opacity, degree I) [2]: 7 | Observation Results ++ (number of lenses with moderate opacity, degree II) [2]: 8 | Observation Results +++ (number of lenses totally opacified, degree III) [2]: 3 | Percentages % + Degree (I) [2]: 39% | Percentages % >++ Degrees (II, III) [2]: 61%

N[C@@H](Cc1c[nH]cn1)C(=O)O.N[C@@H](Cc1c[nH]cn1)C(=O)O.O=C(O)C(Oc1nn(Cc2ccccc2)c2ccccc12)C(=O)O [Y4, 2-(1-benzyl-1H-indazole-3-oxyl) malonate dihistidine]
Comments (improvement versus model group) [1]: ✓ | Observation Results + (number of lenses with mild opacity, degree I) [1]: 14 | Observation Results ++ (number of lenses with moderate opacity, degree II) [1]: 7 | Percentages for different degrees % + Degree (I) [1]: 67% | Percentages for different degrees % >++ Degrees(I, II) [1]: 33% | inhibitory effects on oxidative damage to in vitro eye lens of rabbits induced by H2O2 [1]: showing inhibitory effects | Comments (improvement versus model group) [2]: ✓ | Observation Results + (number of lenses with mild opacity, degree I) [2]: 18 | Observation Results ++ (number of lenses with moderate opacity, degree II) [2]: 3 | Percentages % + Degree (I) [2]: 86% | Percentages % >++ Degrees (II, III) [2]: 14% | inhibitory effects on oxidative damage to in vitro eye lens of rats induced by H2O2 [2]: showing inhibitory effects

O=C(O)COc1nn(Cc2ccccc2)c2ccccc12 [BDL, Bendazac lysine, reference compound]
Comments (improvement versus model group) [1]: ✓ | Observation Results + (number of lenses with mild opacity, degree I) [1]: 9 | Observation Results ++ (number of lenses with moderate opacity, degree II) [1]: 3 | Percentages for different degrees % + Degree (I) [1]: 75% | Percentages for different degrees % >++ Degrees(I, II) [1]: 25% | Comments (improvement versus model group) [2]: ✓ | Observation Results + (number of lenses with mild opacity, degree I) [2]: 30 | Observation Results ++ (number of lenses with moderate opacity, degree II) [2]: 22 | Observation Results +++ (number of lenses totally opacified, degree III) [2]: 3 | Percentages % + Degree (I) [2]: 54% | Percentages % >++ Degrees (II, III) [2]: 46%

O=C([O-])C(Oc1nn(Cc2ccccc2)c2ccccc12)C(=O)[O-].[K+].[K+] [Y2, 2-(1-benzyl-1H-indazole-3-oxyl) malonate dipotassium]
Observation Results + (number of lenses with mild opacity, degree I) [1]: 2 | Observation Results ++ (number of lenses with moderate opacity, degree II) [1]: 3 | Observation Results +++ (number of lenses totally opacified, degree III) [1]: 2 | Percentages for different degrees % + Degree (I) [1]: 29% | Percentages for different degrees % >++ Degrees(I, II) [1]: 71% | inhibitory effects on oxidative damage to in vitro eye lens of rabbits induced by H2O2 [1]: not significant | Observation Results ++ (number of lenses with moderate opacity, degree II) [2]: 3 | Observation Results +++ (number of lenses totally opacified, degree III) [2]: 3 | Percentages % >++ Degrees (II, III) [2]: 100% | inhibitory effects on oxidative damage to in vitro eye lens of rats induced by H2O2 [2]: not significant

NCCCC[C@H](N)C(=O)O.NCCCC[C@H](N)C(=O)O.O=C(O)C(Oc1nn(Cc2ccccc2)c2ccccc12)C(=O)O [Y5, 2-(1-benzyl-1H-indazole-3-oxyl) malonate dilysine]
Observation Results + (number of lenses with mild opacity, degree I) [1]: 2 | Observation Results ++ (number of lenses with moderate opacity, degree II) [1]: 2 | Observation Results +++ (number of lenses totally opacified, degree III) [1]: 2 | Percentages for different degrees % + Degree (I) [1]: 33% | Percentages for different degrees % >++ Degrees(I, II) [1]: 67% | inhibitory effects on oxidative damage to in vitro eye lens of rabbits induced by H2O2 [1]: not significant | Observation Results + (number of lenses with mild opacity, degree I) [2]: 1 | Observation Results ++ (number of lenses with moderate opacity, degree II) [2]: 4 | Observation Results +++ (number of lenses totally opacified, degree III) [2]: 1 | Percentages % + Degree (I) [2]: 17% | Percentages % >++ Degrees (II, III) [2]: 83% | inhibitory effects on oxidative damage to in vitro eye lens of rats induced by H2O2 [2]: showing inhibitory effects

NCCCC[C@H](N)C(=O)O.NCCCC[C@H](N)C(=O)O.O=C(O)C(Oc1nn(Cc2cccc(Cl)c2)c2ccccc12)C(=O)O [Y19, 2-[1-(3-chloro-benzyl)-1H-indazole-3-oxyl]malonate dilysine]
Observation Results +++ (number of lenses totally opacified, degree III) [1]: 3 | Percentages for different degrees % >++ Degrees(I, II) [1]: 100% | inhibitory effects on oxidative damage to in vitro eye lens of rabbits induced by H2O2 [1]: not significant | Comments (improvement versus model group) [2]: ✓ | Observation Results + (number of lenses with mild opacity, degree I) [2]: 18 | Observation Results ++ (number of lenses with moderate opacity, degree II) [2]: 10 | Observation Results +++ (number of lenses totally opacified, degree III) [2]: 4 | Percentages % + Degree (I) [2]: 56% | Percentages % >++ Degrees (II, III) [2]: 44% | inhibitory effects on oxidative damage to in vitro eye lens of rats induced by H2O2 [2]: showing inhibitory effects

O=C([O-])C(Oc1nn(Cc2ccccc2)c2ccccc12)C(=O)[O-].[Na+].[Na+] [Y1, 2-(1-benzyl-1H-indazole-3-oxyl) malonate disodium]
Observation Results + (number of lenses with mild opacity, degree I) [1]: 4 | Observation Results ++ (number of lenses with moderate opacity, degree II) [1]: 3 | Percentages for different degrees % + Degree (I) [1]: 57% | Percentages for different degrees % >++ Degrees(I, II) [1]: 43% | inhibitory effects on oxidative damage to in vitro eye lens of rabbits induced by H2O2 [1]: not significant | Comments (improvement versus model group) [2]: ✓ | Observation Results + (number of lenses with mild opacity, degree I) [2]: 4 | Observation Results ++ (number of lenses with moderate opacity, degree II) [2]: 1 | Percentages % + Degree (I) [2]: 80% | Percentages % >++ Degrees (II, III) [2]: 20% | inhibitory effects on oxidative damage to in vitro eye lens of rats induced by H2O2 [2]: showing inhibitory effects

NCCCC[C@H](N)C(=O)O.NCCCC[C@H](N)C(=O)O.O=C(O)C(Oc1nn(Cc2cccc(F)c2)c2ccccc12)C(=O)O [Y14, 2-[1-(3-fluoro-benzyl)-1H-indazole-3-oxyl) malonate dilysine]
Comments (improvement versus model group) [2]: ✓ | Observation Results + (number of lenses with mild opacity, degree I) [2]: 10 | Observation Results ++ (number of lenses with moderate opacity, degree II) [2]: 8 | Percentages % + Degree (I) [2]: 56% | Percentages % >++ Degrees (II, III) [2]: 44% | inhibitory effects on oxidative damage to in vitro eye lens of rats induced by H2O2 [2]: showing inhibitory effects

O=C([O-])C(Oc1nn(Cc2cccc(F)c2)c2ccccc12)C(=O)[O-].[Na+].[Na+] [Y10, 2-[1-(3-fluoro-benzyl)-1H-indazole-3-oxyl) malonate disodium]
Comments (improvement versus model group) [1]: ✓ | Observation Results + (number of lenses with mild opacity, degree I) [1]: 4 | Observation Results ++ (number of lenses with moderate opacity, degree II) [1]: 1 | Percentages for different degrees % + Degree (I) [1]: 80% | Percentages for different degrees % >++ Degrees(I, II) [1]: 20% | inhibitory effects on oxidative damage to in vitro eye lens of rabbits induced by H2O2 [1]: showing inhibitory effects | Comments (improvement versus model group) [2]: ✓ | Observation Results + (number of lenses with mild opacity, degree I) [2]: 47 | Observation Results ++ (number of lenses with moderate opacity, degree II) [2]: 28 | Observation Results +++ (number of lenses totally opacified, degree III) [2]: 3 | Percentages % + Degree (I) [2]: 60% | Percentages % >++ Degrees (II, III) [2]: 40% | inhibitory effects on oxidative damage to in vitro eye lens of rats induced by H2O2 [2]: not significant
